Data from PubChem BioAssay AID248 (DTP/NCI, 2004).
“And” between values parts separate entries of the source, which are not always exact repeats. Equal entries are not always repeated. Toxic doses and inconclusive results are not listed. No stated cut-off is given here; in the data, active means T/C of 150% or more; inactive means T/C below 125%.

System: L1210 leukemia ip in BDF1 mice, survival T/C
Test: NCI In Vivo Anticancer Drug Screen. Data for tumor model L1210 Leukemia (intraperitoneal) in B6D2F1 (BDF1) mice
Settings: endpoint: mean survival time, higher = longer survival
Outline: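 Each compound was tested against a transplantable tumor grown in mice. The endpoint was survival, with treated animals benchmarked against vehicle controls as a simple ratio.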

[1] = dose: 100.0 mg/kg/injection, schedule: Q01DX009 (ip), vehicle: Klucel (hydroxypropylcellulose) (HPC)
[2] = dose: 200.0 mg/kg/injection, schedule: Q01DX009 (ip), vehicle: Klucel (hydroxypropylcellulose) (HPC)
[3] = dose: 400.0 mg/kg/injection, schedule: Q01DX009 (ip), vehicle: Klucel (hydroxypropylcellulose) (HPC)
[4] = dose: 75.0 mg/kg/injection, schedule: Q01DX001 (ip), vehicle: saline
[5] = dose: 50.0 mg/kg/injection, schedule: Q01DX009 (ip), vehicle: Klucel (hydroxypropylcellulose) (HPC)
[6] = dose: 100.0 mg/kg/injection, schedule: Q04DX003 (ip), vehicle: Klucel (hydroxypropylcellulose) (HPC)
[7] = dose: 100.0 mg/kg/injection, schedule: Q04DX003 (ip), vehicle: saline
[8] = dose: 200.0 mg/kg/injection, schedule: Q04DX003 (ip), vehicle: saline
[9] = dose: 100.0 mg/kg/injection, schedule: Q04DX002 (ip), vehicle: saline with Tween-80
[10] = dose: 200.0 mg/kg/injection, schedule: Q04DX002 (ip), vehicle: saline with Tween-80
[11] = dose: 200.0 mg/kg/injection, schedule: Q04DX003 (ip), vehicle: Klucel (hydroxypropylcellulose) (HPC)
[12] = dose: 400.0 mg/kg/injection, schedule: Q04DX003 (ip), vehicle: Klucel (hydroxypropylcellulose) (HPC)
[13] = dose: 100.0 mg/kg/injection, schedule: Q01DX009 (ip), vehicle: saline
[14] = dose: 200.0 mg/kg/injection, schedule: Q01DX009 (ip), vehicle: saline
[15] = dose: 100.0 mg/kg/injection, schedule: Q04DX003 (ip), vehicle: saline with Tween-80
[16] = dose: 200.0 mg/kg/injection, schedule: Q04DX003 (ip), vehicle: saline with Tween-80
[17] = dose: 400.0 mg/kg/injection, schedule: Q04DX003 (ip), vehicle: saline with Tween-80
[18] = dose: 100.0 mg/kg/injection, schedule: Q01DX001 (ip), vehicle: saline with Tween-80
[19] = dose: 200.0 mg/kg/injection, schedule: Q01DX001 (ip), vehicle: saline with Tween-80

Measured: T/C

COc1cc([C@@H]2c3cc4c(cc3[C@H](O)[C@H]3COC(=O)[C@H]23)OCO4)cc(OC)c1OC
inactive: dose: 0.14 mg/kg/injection, schedule: Q01DX Z (ip), vehicle: carboxymethylcellulose (CMC) 95 % of control | dose: 0.27 mg/kg/injection, schedule: Q01DX Z (ip), vehicle: carboxymethylcellulose (CMC) 101 % of control | dose: 0.54 mg/kg/injection, schedule: Q01DX Z (ip), vehicle: carboxymethylcellulose (CMC) 108 % of control | dose: 1.08 mg/kg/injection, schedule: Q01DX Z (ip), vehicle: carboxymethylcellulose (CMC) 105 % of control and 120 % of control | dose: 1.62 mg/kg/injection, schedule: Q01DX Z (ip), vehicle: carboxymethylcellulose (CMC) 110 % of control | dose: 2.16 mg/kg/injection, schedule: Q01DX Z (ip), vehicle: carboxymethylcellulose (CMC) 95 % of control | dose: 15.0 mg/kg/injection, schedule: Q01DX001 (ip), vehicle: carboxymethylcellulose (CMC) 117 % of control | dose: 30.0 mg/kg/injection, schedule: Q01DX001 (ip), vehicle: carboxymethylcellulose (CMC) 111 % of control | dose: 60.0 mg/kg/injection, schedule: Q01DX001 (ip), vehicle: carboxymethylcellulose (CMC) 88 % of control

CCOc1ccccc1NC(=O)Oc1cc(C)c(Cl)c(C)c1
inactive: [1] 104 % of control | [2] 98 % of control | [3] 100 % of control

O=C(O)CC(NCc1ccccc1)C1CCCCC1 (stereo unspecified)
inactive: dose: 100.0 mg/kg/injection, schedule: Q01DX001 (ip), vehicle: Klucel (hydroxypropylcellulose) (HPC) 95 % of control | dose: 200.0 mg/kg/injection, schedule: Q01DX001 (ip), vehicle: Klucel (hydroxypropylcellulose) (HPC) 101 % of control | dose: 400.0 mg/kg/injection, schedule: Q01DX001 (ip), vehicle: Klucel (hydroxypropylcellulose) (HPC) 98 % of control

Cc1ccc([N+](=O)[O-])cc1NC(=O)Nc1cccc2ccc(O)cc12
inactive: [1] 95 % of control | [2] 93 % of control | [3] 104 % of control

CC(O)(C#N)C(F)(F)F (stereo unspecified)
inactive: [4] 102 % of control | dose: 150.0 mg/kg/injection, schedule: Q01DX001 (ip), vehicle: saline 91 % of control | dose: 300.0 mg/kg/injection, schedule: Q01DX001 (ip), vehicle: saline 105 % of control

CCCC[P+](CCCC)(CCCC)Cc1ccc(C(=O)Oc2ccc([N+](=O)[O-])cc2)cc1
inactive: dose: 25.0 mg/kg/injection, schedule: Q01DX009 (ip), vehicle: Klucel (hydroxypropylcellulose) (HPC) 98 % of control | dose: 25.0 mg/kg/injection, schedule: Q04DX003 (ip), vehicle: Klucel (hydroxypropylcellulose) (HPC) 91 % of control | [5] 89 % of control | dose: 50.0 mg/kg/injection, schedule: Q04DX003 (ip), vehicle: Klucel (hydroxypropylcellulose) (HPC) 93 % of control | [1] 102 % of control | [6] 96 % of control and 88 % of control

Cc1cc(=O)[nH]c(NCCCCC(N)C(=O)O)n1 (stereo unspecified)
inactive: dose: 50.0 mg/kg/injection, schedule: Q04DX003 (ip), vehicle: saline 103 % of control | [7] 100 % of control | [8] 101 % of control

ClCCN(CCCl)c1ccc(C=Nc2ccc(-c3ccccn3)cc2)cc1
inactive: dose: 50.0 mg/kg/injection, schedule: Q01DX001 (ip), vehicle: carboxymethylcellulose (CMC) 102 % of control | dose: 100.0 mg/kg/injection, schedule: Q01DX001 (ip), vehicle: carboxymethylcellulose (CMC) 96 % of control | dose: 200.0 mg/kg/injection, schedule: Q01DX001 (ip), vehicle: carboxymethylcellulose (CMC) 91 % of control | dose: 400.0 mg/kg/injection, schedule: Q01DX001 (ip), vehicle: carboxymethylcellulose (CMC) 100 % of control

CCCCN(C(C)=O)c1nnc(NC(C)=O)s1
inactive: [9] 102 % of control | [10] 98 % of control | dose: 400.0 mg/kg/injection, schedule: Q04DX002 (ip), vehicle: saline with Tween-80 98 % of control

COc1ccc(OCCOC(=O)Nc2ccc(C)cc2[N+](=O)[O-])cc1
inactive: [5] 97 % of control | [1] 90 % of control | [6] 103 % of control | [2] 90 % of control | [11] 103 % of control | [12] 100 % of control

COc1cc2c(cc1OCc1ccccc1)C(C#N)N(C(=O)c1ccccc1)C=C2 (stereo unspecified)
inactive: dose: 25.0 mg/kg/injection, schedule: Q01DX009 (ip), vehicle: saline 98 % of control | dose: 50.0 mg/kg/injection, schedule: Q01DX009 (ip), vehicle: saline 100 % of control | [13] 93 % of control | [14] 86 % of control

c1ccc([Si](c2ccccc2)(c2ccccc2)c2ccccc2)cc1
inactive: [15] 90 % of control | [16] 90 % of control | [17] 88 % of control

CCOC(=O)c1cnc(SC)nc1Nc1ccccc1
inactive: [15] 94 % of control | [16] 100 % of control | [17] 86 % of control

Cc1ccc(Cl)cc1NC(=S)N(C)C
inactive: [9] 98 % of control | [10] 98 % of control

CCCS(=O)(=O)N1CCCCC1
inactive: dose: 100.0 mg/kg/injection, schedule: Q04DX002 (ip), vehicle: Klucel (hydroxypropylcellulose) (HPC) 102 % of control | dose: 200.0 mg/kg/injection, schedule: Q04DX002 (ip), vehicle: Klucel (hydroxypropylcellulose) (HPC) 94 % of control | dose: 400.0 mg/kg/injection, schedule: Q04DX002 (ip), vehicle: Klucel (hydroxypropylcellulose) (HPC) 102 % of control

O=C(Nc1ccc(Cl)cc1)Nc1ccc(Cl)cc1
inactive: [15] 91 % of control | [16] 91 % of control

CCOC(=O)Nc1cc(NC(C)CCCN(CC)CC)nc2nc(-c3ccc(Cl)cc3)cnc12 (stereo unspecified)
inactive: dose: 9.5 mg/kg/injection, schedule: Q01DX001 (ip), vehicle: saline 100 % of control | dose: 19.0 mg/kg/injection, schedule: Q01DX001 (ip), vehicle: saline 102 % of control | dose: 38.0 mg/kg/injection, schedule: Q01DX001 (ip), vehicle: saline 89 % of control | [4] 100 % of control

Cc1ccc(S(=O)(=O)N(CCCc2c(C)nc(N)nc2NCCCc2ccccc2)c2ccccc2)cc1
inactive: dose: 50.0 mg/kg/injection, schedule: Q01DX001 (ip), vehicle: saline with Tween-80 98 % of control | [18] 98 % of control | [19] 90 % of control

Nc1ccc(Cc2ccc(Cl)cc2)cc1
inactive: dose: 75.0 mg/kg/injection, schedule: Q01DX001 (ip), vehicle: acetone 94 % of control | dose: 150.0 mg/kg/injection, schedule: Q01DX001 (ip), vehicle: acetone 94 % of control | dose: 300.0 mg/kg/injection, schedule: Q01DX001 (ip), vehicle: acetone 91 % of control

FC(F)(F)c1cccc(-c2nc3nc(Cl)c(Cl)nc3[nH]2)c1
inactive: dose: 12.5 mg/kg/injection, schedule: Q01DX009 (ip), vehicle: saline with Tween-80 93 % of control | dose: 25.0 mg/kg/injection, schedule: Q01DX009 (ip), vehicle: saline with Tween-80 98 % of control | dose: 50.0 mg/kg/injection, schedule: Q01DX009 (ip), vehicle: saline with Tween-80 90 % of control

CCOC(=O)CSc1c([N+](=O)[O-])c(C)nn1C
inactive: dose: 25.0 mg/kg/injection, schedule: Q01DX009 (ip), vehicle: water 101 % of control | dose: 50.0 mg/kg/injection, schedule: Q01DX009 (ip), vehicle: water 97 % of control | dose: 100.0 mg/kg/injection, schedule: Q01DX009 (ip), vehicle: water 105 % of control | dose: 200.0 mg/kg/injection, schedule: Q01DX009 (ip), vehicle: water 97 % of control | dose: 400.0 mg/kg/injection, schedule: Q01DX009 (ip), vehicle: water 92 % of control

CC(=O)N(C(C)=O)c1ccc(C)cc1
inactive: [13] 109 % of control | [7] 95 % of control | [14] 112 % of control | [8] 108 % of control | dose: 400.0 mg/kg/injection, schedule: Q04DX003 (ip), vehicle: saline 103 % of control

O=S(O)c1cc(Br)ccc1Br
inactive: [1] 97 % of control | [6] 93 % of control | [2] 113 % of control | [11] 104 % of control | [12] 94 % of control

CC1=C(c2ccccc2)C(c2ccccc2)=C(C)C1=NNc1ccc([N+](=O)[O-])cc1[N+](=O)[O-]
inactive: [18] 86 % of control | [19] 86 % of control | dose: 400.0 mg/kg/injection, schedule: Q01DX001 (ip), vehicle: saline with Tween-80 86 % of control
